Measurements: a melting point compilation (Tetko et al.; mined from patent text by program, amines drawn as free bases though some values may be those of a salt)

Row | melting point [°C] | SMILES
1 | 63.5 to 66 | O=C(Oc1ccc(F)cc1)c1cccc(F)c1
2 | 81 to 84 | CCCCCCCCCCOc1cc(OCCCCCCCCCC)cc(C(=O)N(CC(=O)O)CC(=O)O)c1
3 | 138 to 139 | CCOC(=O)c1cc2cccc(NS(=O)(=O)c3ccccc3C(F)(F)F)c2[nH]1
4 | 125 to 127 | CCOC(=O)c1c2ccc(CC(=O)NOCCCN(CC)CC)ccc-2c(C(=O)OCC)c1N
5 | 215 to 219 | Cn1cc(C(=O)NCc2ccc(Cl)cc2)c(=O)c2cc(CN3CCSCC3)ccc21
6 | 123 to 125 | CCOC(=O)CC(O)CC(O)C=Cc1c(C(C)C)sc(-c2ccccc2)c1-c1ccc(F)cc1 (centres undefined)
7 | 262 to 263 | COc1ccc(-c2coc(C(N)=O)cc2=O)cc1
8 | 161 to 163 | CCn1ncnc1COc1nc2c(cc1C(C)(C)C)nnn2-c1ccccc1
9 | 123 to 127 | CCCCOc1ccc2c(c1)C(NS(C)(=O)=O)CC(C)(C)O2 (centres undefined)
10 | 196 to 197 | COC(=O)c1ccc(Oc2c(C)n(CC(=O)O)c3ccc(Cl)cc23)cc1
11 | 262 to 264 | CC(C)NCC(O)COc1ccc2nc3[nH]c(=O)[nH]c3cc2c1 (centres undefined)
12 | 119 to 127 | Cc1c(Br)cc(NC(=O)c2cccc(CSc3cnccn3)c2)cc1Br
13 | 84 to 85 | CS(=O)(=O)OCCCCC1C(=O)Nc2ccccc21 (centres undefined)
14 | 111 to 113 | COC(=O)[C@H](Cc1cc(Cl)c(OCCc2coc(-c3cccc(OCc4ccccc4)c3)n2)c(Cl)c1)NC(=O)C(F)(F)F
15 | 123 | COc1ccc(OCCCN2CCN(c3ccc(Cl)nn3)CC2)cc1
16 | 80 to 89 | COC(=O)C=CC(C)Oc1ccc(OCc2ccccc2)cc1 (centres undefined)
17 | 118 to 120 | COC(=O)Cc1ccc(C(=O)c2ccc(C)cc2)[nH]1
18 | 208 | CCCCc1nc(S(C)=O)c(C(=O)O)n1Cc1ccc(-c2ccccc2C(=O)O)cc1 (centres undefined)
19 | 136 to 138 | O=C(CSCCOc1ccccc1)NNC(=O)c1ccc(Cl)nc1
20 | 180 to 184 | CC(=O)OCC(=O)C1(O)CCC2C3CCC4=CC(=O)C=CC4(C)C3C(O[Si](C)(C)C)CC21C (centres undefined)
21 | 94 to 97 | O=C(NNCCc1ccc(O)cc1)OCc1ccccc1
22 | 106 to 112 | O=C(O)c1ccc(OCCNC(=O)C2Cc3ccccc3N2S(=O)(=O)c2ccc(-c3cc(C(F)(F)F)ccc3Cl)cc2)cc1Cl (centres undefined)
23 | 162 | CCOC(=O)CCNC(=O)N1CCc2cc(S(=O)(=O)N3CCN(c4cccc(Cl)c4)CC3)ccc21
24 | 163 to 165 | CC(Cc1cc(C(C)(C)C)c(O)c(C(C)(C)C)c1)C(=O)Oc1ccc(C(=O)c2cc(C(C)(C)C)c(O)c(C(C)(C)C)c2)c(O)c1 (centres undefined)
25 | 168 to 170 | CCCCCCCCCCCc1nc(NC(=O)Nc2c(C(C)C)cccc2C(C)C)n[nH]1
26 | 219 to 221 | O=c1nc(NCCCOc2cccc(CN3CCCCC3)c2)c2ccccc2[nH]1
27 | 89 to 92 | CCc1cc(SCc2cccc3sc(-c4ccc(C(F)(F)F)cc4)nc23)ccc1OCC(=O)O

Row | melting point [°C] | SMILES
28 | 123 to 124 | C=C(CN(C)C)c1ccc(NC(=O)NC)cc1
29 | 154 | COc1ccc(Oc2ccc(C(=O)N(C3CCCCC3)C3CCCC3)cc2)cc1OC
30 | 113 to 122 | Cc1cc(N)c(C)c(Cl)c1Oc1ccc(C(=O)c2ccc(Cl)cc2)cc1
31 | 192 to 193 | CCOC(=O)/C=C/c1cnc2c(c1)C(=O)N(C)c1ccc(Cl)nc1N2CC
32 | 87 to 91 | CCOC(=O)[C@H](CSCc1ccccc1)NC(=O)C(C)(C)NC(=O)[C@@H](S)C(C)C
33 | 148 to 150 | COc1cnc(NCCCOc2cccc(CN3CCCCC3)c2)[nH]c1=O
34 | 165 to 167 | COc1ccc(-c2c(Cl)ncnc2NS(=O)(=O)c2ccc(OC)cc2)cc1
35 | 69 to 70 | CCCc1ccc(C2c3c(C)cc(C)c(C)c3OC2(C)C)cc1 (centres undefined)
36 | 56 to 57 | CCOC(=O)C(=O)N(CCBr)N=Cc1ccccc1
37 | 103 | CC(C)(C)OC(=O)N(Cc1csc2ccccc12)S(N)(=O)=O
38 | 124 to 125 | O=C(NC1(C(=O)O)CC1)OCCOC(=O)C1CCCCC1
39 | 140 to 141 | CNS(=O)(=O)c1ccc(OC)c(C(=O)NCC2CCCN2CC2=CCCCC2)c1 (centres undefined)
40 | 158 to 159 | CCCc1nc2c(N)nc3ccccc3c2n1CCCCCC(=O)NC
41 | 108 to 109 | O=C(NCCCOc1ccncc1)c1ccccc1CO
42 | 160 | Cc1cc(NC2=NCCN2CCNC(=O)Nc2ccc(C(=O)O)cc2)nc(C)n1
43 | 64 | CCN(CC)CCOc1ccc(C#CC(C)(C)O)cc1
44 | 99 | COc1ccc(CN2C(=O)C(C)(c3cc(C(=O)N4CCCCC4C(=O)N(C)CC(F)(F)F)ccc3Cl)c3cc(Cl)ccc32)c(OC)c1 (centres undefined)
45 | 93 to 95 | CCOP(=O)(OCC)C(C)CNC(=O)CCl (centres undefined)
46 | 192 to 195 | CCCCC1(O)C2=NCC3(CCCCC3)CN2c2ccccc21 (centres undefined)
47 | 75 | CC(C#N)c1cccc(C(=O)c2cc3sccc3s2)c1 (centres undefined)
48 | 48 to 49 | CCC(N)C(=O)Nc1c(C)cccc1C (centres undefined)
49 | 172 to 173 | Cc1cnc(CNC(=O)c2sc(N3CCN(Cc4ccc(C(F)(F)F)cc4)C3=O)nc2C)cn1
50 | 174 to 175 | O=C(O)c1ccccc1OCCN1CCC(c2cn(Cc3ccco3)c3cc(F)ccc23)CC1
51 | 67 to 68 | COc1cc(C(=O)C(Br)Br)cc(OC)c1OC
52 | > 260 | COC(=O)Cn1c(=O)c(=O)[nH]c2cc(N)c(Cl)cc21
53 | 175 to 176 | CC(C)(C)OC(=O)NCCNC(=O)c1n[nH]cc1-c1cccc(F)c1

Continued, molecule first:

Row | SMILES | melting point [°C]
54 | O=C1N(Cc2ccc(Cl)s2)c2cccc(Br)c2C12COc1cc3c(cc12)OCO3 (centres undefined) | 85 to 87
55 | CNC(=O)c1ccccc1C(O)(c1ccc(Cl)cc1)c1ccccc1CN(C)C (centres undefined) | 154 to 156
56 | Cc1cccc(OC2CCN(CCc3c[nH]c4ccccc34)CC2)c1 | 145 to 146
57 | CCC1(C)OC(c2ccc(S(N)(=O)=O)cc2)=C(c2ccsc2)C1=O (centres undefined) | 120 to 121
58 | COC[C@H]1CC[C@@H](n2c(=O)[nH]c3c(C(N)=O)nc(-c4cccc(O)c4)nc32)CC1 | 324 to 326
59 | N#Cc1nn(-c2c(Cl)cc(C(F)(F)F)cc2Cl)c(Cl)c1C=O | 145 to 146
60 | COc1ccc(Cl)cc1C(=N)Nc1ccc(F)c(NC(=O)/C=C/c2ccccc2Cl)c1 | 229 to 230
61 | CC(=O)OCC1OC(OC2C(COC(C)=O)OC(O)(Br)C(OC(C)=O)C2OC(C)=O)C(OC(C)=O)C(OC(C)=O)C1OC(C)=O (centres undefined) | 97 to 99
62 | CC(C)CN(Cc1nc(-c2ncn3c2CN(C)C(=O)c2c(Cl)cccc2-3)no1)CC(C)C | 125 to 128
63 | c1ccc(-c2n[nH]c3c2Cc2ccccc2-3)cc1 | 234 to 236
64 | NC(=O)C1CCC(NC(=O)NCc2ccc3c(c2)CN(C2CCC(=O)NC2=O)C3=O)CC1 (centres undefined) | 195 to 197
65 | CCC(=O)Nc1c(C)nn(C)c1C#N | 153 to 155
66 | Nc1nc2c(sc(=O)n2CC2CCCO2)c(=O)[nH]1 (centres undefined) | 257 to 261
67 | CC1=C([N+](=O)[O-])C(c2ccccc2C(F)(F)F)c2c[nH]nc2N1 (centres undefined) | 257 to 258
68 | COc1ccc(-c2n[nH]c3ccc([N+](=O)[O-])cc23)cc1 | 153
69 | CCOc1nc2ccccc2nc1NC(=O)N1CCN(C(c2ccccc2)c2ccccc2)CC1 | 156 to 158
70 | CN1CCN(c2cc(Cl)cc3c2c(=O)n(Cc2ccccc2[N+](=O)[O-])c(=O)n3Cc2ccccc2)CC1 | 164 to 169
71 | COc1cc2ncc(OC3CCCCC3)nc2cc1OC1CCCCC1 | 75 to 78
72 | CC(=O)Nc1cccc2c1S(=O)(=O)C(C)C2 (centres undefined) | 115 to 117
73 | Cc1c(Cl)cccc1-n1nc(C(N)=O)nc1-c1ccccc1 | 198 to 200
74 | CC1CCCC(C)C1NSc1nc2ccccc2s1 (centres undefined) | 75 to 93
75 | O=C(O)c1csnc1-c1ccc(Cl)c(Cl)c1 | 247 to 248
76 | O=C(CBr)CN1C(=O)c2ccccc2C1=O | 139 to 141

Row | SMILES | melting point [°C]
77 | Clc1ccc(C2=NNCC2)cc1 | 90 to 100
78 | C[Si](C)(C)c1c(Br)cnc2c1CCO2 | 92 to 94
79 | CCC1c2cccn2-c2ccc(C(F)(F)F)cc2N1S(=O)(=O)c1ccc(OC)c(C)c1 (centres undefined) | 151 to 154
80 | CCN1C(=O)C(C(=O)Nc2ccc(Cl)cc2Oc2ccc(Cl)cc2)C(=O)N(C)C1=S (centres undefined) | 250 to 251
81 | Oc1cccc2ccc(C=Cc3ccccc3)nc12 | 70 to 72
82 | Nc1ccc2nc(CN3CCCC3)ccc2c1 | 102 to 104
83 | COC(=O)Nc1nc(C)c(-c2nc3ccccc3c(=O)n2-c2ccc(Cl)cc2)s1 | > 275
84 | NC(=O)c1cccc(-c2ccc(F)c3cc(Cc4cccc(C(F)(F)F)c4)sc23)c1 | 139 to 140
85 | CNC(=O)N1CCc2[nH]cnc2C1c1ccco1 (centres undefined) | 205
86 | CC(C)NP(N)(=O)NC(=O)c1ccc(F)cc1 (centres undefined) | 197 to 199
87 | O=[N+]([O-])c1ccc(Cl)cc1Nc1ccccc1Cl | 97
88 | Nc1ccc(S(=O)(=O)c2ccnc(N3CCCC3)c2)cc1 | 186 to 187
89 | Nc1ccnc(N2CCC(c3ccc(S(N)(=O)=O)cc3)CC2)c1 | 290 to 295
90 | CN(Cc1ccc(NC(=O)C2=Cc3cc(-c4ccc(N5CCCCC5)cc4)ccc3CCC2)cc1)C1CCOCC1 | 170 to 171
91 | CC(C)(C)c1nc2c(N)nc(-c3ccncc3)nc2[nH]1 | 272 to 274
92 | Cc1ccc2c(c1)c(N1CCN(C(=O)c3cccs3)CC1)c(C#N)c(=O)n2Cc1ccc(F)cc1 | 274
93 | O=C1C2=C(SCCO2)C(=O)N1c1ccc(Cl)cn1 | 152
94 | CC1NC(=NO)OC1c1ccccc1 (centres undefined) | 145 to 148
95 | Cc1ccccc1CN(c1ncnc2c1ncn2C1OC(CO)C(O)C1O)C1CCCCC1 (centres undefined) | 129 to 130
96 | CCOC1CCC(=O)N1S(=O)(=O)c1ccc(N)cc1 (centres undefined) | 185 to 186
97 | CCCOC(=O)c1cncn1C(C)c1ccccc1 (centres undefined) | 156 to 157
98 | c1ccc2sc(SSN(C3CCCCC3)C3CCCCC3)nc2c1 | 84 to 86
99 | Cc1nc(C(=O)N(C)C)c2n1-c1ccc(Cl)cc1C(c1ccccc1F)=NC2 | 158 to 160
